Test results taken from patent US9932522B2, “Electrochromic compound, electrochromic composition, display element, and dimming element” (Ricoh Company, Ltd., priority 2014, dated 2018).

Test: Solubility evaluation of electrochromic compound
Settings: dissolved to saturation, filtered through 0.5 μm PTFE filter, residue weighed; for Solubility, solvent TFP: 2,2,3,3-tetrafluoropropanol (TFP); for Solubility, solvent DMF: N,N-dimethylformamide (DMF)
From the text: The residue was filtered with a PTFE filter having the average pore diameter of 0.5 μm, and the solvent was dried under the reduced pressure. Then, the residue was weight to calculate an amount of the solute dissolved in each solvent.

SMILES | Solubility, solvent TFP | Solubility, solvent DMF
O=P(O)(O)CCCCCCCC[n+]1ccc(-c2ccc(-c3cccs3)cc2)cc1.[Br-] [Compound 1b] | A (the solubility of 5% by mass or greater was attained relative to each solvent) | A (the solubility of 5% by mass or greater was attained relative to each solvent)
O=P(O)(O)CCCCCCCC[n+]1ccc(-c2ccc(-c3cncs3)cc2)cc1.[Br-] [Compound 2b] | A (the solubility of 5% by mass or greater was attained relative to each solvent) | A (the solubility of 5% by mass or greater was attained relative to each solvent)
O=P(O)(O)CCCCCCCC[n+]1ccc(-c2ccc(-c3nccs3)cc2)cc1.[Br-] [Compound 3b] | A (the solubility of 5% by mass or greater was attained relative to each solvent) | A (the solubility of 5% by mass or greater was attained relative to each solvent)
COc1nc(OC)nc(-c2ccc(-c3cc[n+](CCCCCCCCP(=O)(O)O)cc3)cc2)n1.[Br-] [Compound 4b] | A (the solubility of 5% by mass or greater was attained relative to each solvent) | A (the solubility of 5% by mass or greater was attained relative to each solvent)
O=P(O)(O)CCCCCCCC[n+]1ccc(-c2ccc(-c3nc(-c4ccccc4)nc(-c4ccccc4)n3)cc2)cc1.[Br-] [Compound 5b] | A (the solubility of 5% by mass or greater was attained relative to each solvent) | A (the solubility of 5% by mass or greater was attained relative to each solvent)
O=P(O)(O)CCCCCCCC[n+]1ccc(-c2ccc(-c3ncccn3)cc2)cc1.[Br-] [Compound 6b] | A (the solubility of 5% by mass or greater was attained relative to each solvent) | A (the solubility of 5% by mass or greater was attained relative to each solvent)
O=P(O)(O)CCCCCCCC[n+]1cccc(-c2ccc(-c3cccs3)cc2)c1 [Compound 12b] | A (the solubility of 5% by mass or greater was attained relative to each solvent) | A (the solubility of 5% by mass or greater was attained relative to each solvent)
